Reference: patent publication US20210392935A1, “PREPARATION COMPRISING A PROBIOTIC STRAIN OF THE GENUS BACILLUS MEGATERIUM AND A POLYUNSATURATED FATTY ACID COMPONENT” (Evonik Operations GmbH, priority 2018, published 2021)

Tests used:
Format in all cases: cell-based
[1] = tested on: Bacillus megaterium DSM 32963 cells; assay: Lipidometabolomics (UPLC-MS/MS) of PUFA oxygenation products in supernatants of B. megaterium DSM 32963 with AvailOm; conditions: for abundance with dispersion formulation and/or bile acids compared to AvailOm alone (in words): B. megaterium DSM 32963 supernatants; for Extracellular concentration of PUFA oxygenation product: − bile acids, net of cell-free control
Description: To investigate the amount of extracellularly appearing 18-HEPE, the B. megaterium DSM 32963 cells were cultivated as described in example 1. The cells were resuspended in 10 ml LBG or LBG containing 9.76 g/I FeSSIF-V2 (biorelevant.com), which is a mixture of taurocholate, phospholipids and other components designed to simulate bile surfactants, and 2 ml of supplements (table 2) were added, respectively. Additionally, the supplements were also added respectively to the different media in shaking flasks without cells and treated under the same conditions (controls). The 18-HEPE concentrations of the culture supernatants and controls were determined after incubation at 16 h, 30° C. and 200 rpm (table 4). […] Of note, the omega-3 4 18-HEPE conversion rate detected by this method is up to 0.075, which exceeds the basal content of 18-HEPE of 0.0005% in an esterified fish oil, disclosed by WO 2017/041094. More importantly, we discovered that the omega-3 lysine salt is converted by Bacillus megaterium strains to a multitude of (final) SPM products at even higher concentrations than 18-HEPE (see example 6), which is of physiological relevance.
(§1) Bacterial supernatant samples were subjected to lipid extraction using RP-phase solid phase extraction and subsequently analyzed by ultra performance liquid chromatography ESI tandem mass spectrometry (UPLC-MS/MS) according to a published procedure. Under these conditions approximately 40 different LM, including 5-hydroxy-eicosapentaenoic acid 5-HEPE, 8-HEPE, 11-HEPE, 12-HEPE, 15-HEPE, 18-HEPE, 5-hydroxy-eicosatetraenoic acid (5-HETE), 8-HETE, 11-HETE, 12-HETE, 15-HETE, 4-hydroxy-DHA (4-HDHA), 7-HDHA, 13-HDHA, 14-HDHA, 17-HDHA, lipoxin A4 (LXA4), LXB4, resolvin E1 (RvE1), RvE3, resolvin D1-5 (RvD1-5), AT-RvD1, RvD2, protectin D1 (PD1), AT-PD1, maresin 1(MaR1), MaR2, plus 4 fatty acid substrates can be detected with a lower limit of detection of 1 pg.
To investigate if Bacillus megaterium is capable of producing other PUFA oxygenation products in addition to 18-HEPE, a lipidometabolomics screening of supernatants from Bacillus megaterium strain 32963 cultured as in example 4 with AvailOm® was performed, either dissolved or in a dispersion formulation, with or without bile acids. Cell-free preparations of AvailOm® formulations were treated and analyzed in parallel and served as controls for non-enzymatic, spontaneous formation of oxygenation products. Values given in table 6 display net concentrations of products formed, i.e. after subtraction of control values. […] Concentrations of several SPM exceed by far the concentrations of SPM found in human plasma samples, which are typically in a range of ˜20-100 pg/ml. For comparison, human breast milk contains ˜6.000 pg/ml RvE1 and ˜10.000 pg/ml RvD1 [42].

[2] = tested on: Bacillus megaterium DSM 33299; assay: Lipidometabolomics of supernatants of B. megaterium DSM 33299 with AvailOm dispersion; conditions: Bacillus megaterium DSM 33299, AvailOm dispersion; net concentrations
Text: as §1
(§2) 47 additional Bacillus megaterium strains sourced from various habitats were screened for their SPM production capacity to determine if this is a general phenomenon of the species Bacillus megaterium and to detect strain-specific differences in types and quantities of SPM being produced. Cells were cultured as detailed in example 4, with dispersion formulation of AvailOm® serving as omega-3 fatty acid source. Cell-free preparations of AvailOm® were treated and analyzed in parallel and served as controls for non-enzymatic, spontaneous formation of oxygenation products. […]

[3] = tested on: Bacillus megaterium DSM 33296; assay: Lipidometabolomics of supernatants of B. megaterium DSM 33296 with AvailOm dispersion; conditions: Bacillus megaterium DSM 33296, AvailOm dispersion; net concentrations
Text: as §1, §2

[4] = tested on: Bacillus megaterium strains; assay: Screen of 47 additional Bacillus megaterium strains for SPM production capacity; conditions: 47 additional strains, AvailOm dispersion
Text: as §1, §2

| Compound | abundance with dispersion formulation and/or bile acids compared to AvailOm alone (in words) [1] | also measured |
| --- | --- | --- |
| 5-hydroxy-eicosatetraenoic acid [5-HETE] | lower | – |
| 9-hydroxyoctadecadienoic acid [9-HODE] | lower | – |
| 11-hydroxy-eicosapentaenoic acid [11-HEPE] | lower | – |
| 12-hydroxy-eicosapentaenoic acid [12-HEPE] | lower | – |
| CCC=CCC=CCC=CCC=CC=CC(O)CCCC(=O)O (stereo not shown) [5-HEPE, 5-hydroxy-eicosapentaenoic acid] | lower | – |
| CCCCC/C=C\C/C=C\C=C\C(O)C/C=C\CCCC(=O)O (stereo not shown) [8-HETE, 8-hydroxy-eicosatetraenoic acid] | lower | – |
| CC/C=C\CC(O)/C=C/C=C\C/C=C\C/C=C\CCCC(=O)O (stereo not shown) [15-HEPE, 15-hydroxy-eicosapentaenoic acid] | lower | – |
| CCC(O)/C=C/C=C\C/C=C\C/C=C\C/C=C\CCCC(=O)O (stereo not shown) [18-HEPE, 18-hydroxy-eicosapentaenoic acid] | lower | – |
| CC/C=C\C[C@H](O)/C=C/C=C\C=C\C=C\[C@@H](O)[C@@H](O)C/C=C\CCC(=O)O [RvD1, resolvin D1] | – | Extracellular concentration of PUFA oxygenation product [2]: 4389 pg/mL; Extracellular concentration of PUFA oxygenation product ([1]; AvailOm dispersion): 1863 pg/mL; Extracellular concentration of PUFA oxygenation product ([1]; AvailOm): 598 pg/mL; Extracellular concentration of PUFA oxygenation product [3]: 3626 pg/mL |
| CC[C@H](O)C(O)/C=C/C=C/C=C\C/C=C\C/C=C\CCCC(=O)O (stereo partly shown) [RvE3, resolvin E3] | – | concentration in most of the strains [4]: up to 1.3 μg/ml |
